Experimental data taken from patent US12581252B2, “Substituted pyrrolo[3,4-b]pyridines as PI3K-α inhibitors” (Relay Therapeutics, Inc., priority 2020, dated 2026).

Molecular target: H1047R PIK3CA enzyme (Homo sapiens, UniProt P42336, H1047R)
Experiment: ADP-Glo Biochemical PIK3CA Kinase Assay

H1047R PIK3CA enzyme, sequence (P42336 whole entry H1047R): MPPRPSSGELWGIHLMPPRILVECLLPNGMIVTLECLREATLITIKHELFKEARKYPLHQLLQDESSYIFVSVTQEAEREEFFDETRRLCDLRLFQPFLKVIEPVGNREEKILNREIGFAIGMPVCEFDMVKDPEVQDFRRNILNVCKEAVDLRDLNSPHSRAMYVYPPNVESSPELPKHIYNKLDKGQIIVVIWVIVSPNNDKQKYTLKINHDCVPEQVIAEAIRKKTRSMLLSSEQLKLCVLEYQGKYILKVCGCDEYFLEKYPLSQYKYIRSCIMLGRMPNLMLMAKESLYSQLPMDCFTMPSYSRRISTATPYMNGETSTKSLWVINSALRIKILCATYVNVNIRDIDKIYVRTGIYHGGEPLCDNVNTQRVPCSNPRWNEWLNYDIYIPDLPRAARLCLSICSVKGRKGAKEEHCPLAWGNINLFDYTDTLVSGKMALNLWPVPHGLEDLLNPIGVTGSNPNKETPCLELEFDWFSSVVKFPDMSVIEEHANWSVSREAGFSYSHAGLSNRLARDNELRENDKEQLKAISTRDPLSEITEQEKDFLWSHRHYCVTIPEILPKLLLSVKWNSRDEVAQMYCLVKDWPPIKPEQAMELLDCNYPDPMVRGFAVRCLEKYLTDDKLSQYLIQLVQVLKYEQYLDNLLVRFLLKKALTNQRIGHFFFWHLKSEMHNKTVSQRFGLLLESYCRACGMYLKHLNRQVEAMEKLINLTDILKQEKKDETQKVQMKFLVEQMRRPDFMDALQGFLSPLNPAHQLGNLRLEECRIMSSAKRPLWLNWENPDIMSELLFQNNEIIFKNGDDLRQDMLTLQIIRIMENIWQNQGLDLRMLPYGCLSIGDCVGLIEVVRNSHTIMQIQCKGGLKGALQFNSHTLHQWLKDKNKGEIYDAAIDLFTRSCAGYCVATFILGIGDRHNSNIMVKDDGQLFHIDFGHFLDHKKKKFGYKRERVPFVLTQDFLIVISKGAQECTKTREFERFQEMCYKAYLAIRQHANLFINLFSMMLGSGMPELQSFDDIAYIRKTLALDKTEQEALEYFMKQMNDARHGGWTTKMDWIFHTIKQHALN
H1047R PIK3CA enzyme, sequence (P27986 whole entry partner): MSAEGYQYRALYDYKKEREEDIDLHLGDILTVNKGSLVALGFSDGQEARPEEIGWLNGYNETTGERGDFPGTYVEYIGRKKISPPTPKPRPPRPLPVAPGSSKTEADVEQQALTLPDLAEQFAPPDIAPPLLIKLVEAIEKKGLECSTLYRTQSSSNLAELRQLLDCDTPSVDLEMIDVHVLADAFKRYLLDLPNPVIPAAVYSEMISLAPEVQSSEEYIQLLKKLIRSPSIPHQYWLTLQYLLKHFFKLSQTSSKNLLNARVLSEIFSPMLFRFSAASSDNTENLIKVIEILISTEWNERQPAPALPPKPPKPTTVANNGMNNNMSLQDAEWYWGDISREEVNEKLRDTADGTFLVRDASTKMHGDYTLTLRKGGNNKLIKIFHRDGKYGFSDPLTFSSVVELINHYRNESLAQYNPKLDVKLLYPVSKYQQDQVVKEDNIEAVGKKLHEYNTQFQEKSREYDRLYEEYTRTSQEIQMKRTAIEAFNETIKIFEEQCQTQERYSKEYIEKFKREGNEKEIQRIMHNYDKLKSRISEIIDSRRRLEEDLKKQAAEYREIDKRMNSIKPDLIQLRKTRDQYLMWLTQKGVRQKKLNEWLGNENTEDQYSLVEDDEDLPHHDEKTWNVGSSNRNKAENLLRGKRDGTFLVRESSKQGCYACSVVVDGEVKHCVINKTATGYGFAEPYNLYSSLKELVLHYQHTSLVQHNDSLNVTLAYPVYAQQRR

Row | IC50 | Compound
1 | 1 to 10 µM | C[C@@H](c1cc(NC(=O)c2cc(F)cc(C(F)(F)F)c2)c2c(c1)C(=O)N[C@@H]2c1cc(F)ccc1Cl)S(C)(=O)=O (single isomer, unassigned) [Compound I-1640]
2 | 1 to 10 µM | CC[C@@]1(O)CN(C(=O)Nc2cccc3c2[C@H](c2cc(F)ccc2Cl)NC3=O)c2ccc(F)cc21 (single isomer, unassigned) [Compound I-2463]
3 | 1 to 10 µM | O=C(Nc1cc(-c2ccn3ncnc3c2)cc2c1C(c1cc(F)ccc1O)NC2=O)c1cc(F)cc(C(F)(F)F)c1 (centres unmarked) [Compound I-1655]
4 | ≤ 0.1 µM | O=C(Nc1cc(-c2ccn3nc(Cl)nc3c2)cc2c1[C@H](c1cc(F)ccc1Cl)NC2=O)c1cc(F)cc(C(F)(F)F)c1 [Compound I-1697]
5 | 1 to 10 µM | O=C1N[C@@H](c2cc(F)ccc2Cl)c2c(NC(=O)N3C[C@@](O)(C(F)(F)F)c4cc(F)ccc43)ccc(-n3ccnn3)c21 (single isomer, unassigned) [Compound I-2523]
6 | 1 to 10 µM | O=C(Nc1cc(-c2ccc3ncnn3c2)cc2c1[C@@H](c1cc(F)ccc1Cl)NC2=O)c1cc(Cl)cc(Cl)c1 (stereo in doubt) [Compound I-1207]
7 | 1 to 10 µM | O=C1NC(c2cc(F)ccc2Cl)c2c(Nc3cccc4ccccc34)cc(Br)cc21 (centres unmarked) [Compound I-1682]
8 | 1 to 10 µM | CC1(n2[nH]c(=O)c3cccc(NC(=O)c4cc(F)cc(C(F)(F)F)c4)c32)CCCCC1 [Compound I-857]
9 | 1 to 10 µM | O=C1NC(c2cc(F)ccc2Cl)c2c(NC(=O)N3CCC4C3[C@@H]4C(F)(F)F)cccc21 (single isomer, unassigned) [Compound I-2329]
10 | 10 to 100 µM | O=C1NC(c2cc(F)ccc2Cl)c2c(NC(=O)C3CC(C(F)(F)F)CCN3)cc(Br)cc21 (centres unmarked) [Compound I-1689]
11 | 10 to 100 µM | O=C1NC(c2cc(F)ccc2Cl)c2c(Nc3ccn(C4CC4)n3)cc(-c3ccc4ncnn4c3)cc21 (centres unmarked) [Compound I-1993]
12 | 1 to 10 µM | O=C(Nc1cc(-c2cnn(C(F)F)c2)cc2c1[C@@H](c1cc(F)ccc1Cl)NC2=O)c1cc(F)cc(C(F)(F)F)c1 (single isomer, unassigned) [Compound I-1739]
13 | ≤ 0.1 µM | N#Cc1cccc([S+]([O-])Cc2cc(NC(=O)c3cc(F)cc(C(F)(F)F)c3)c3c(c2)C(=O)NC3c2cc(F)ccc2Cl)c1 (centres unmarked) [Compound I-1487]
14 | 1 to 10 µM | CC(C)[C@]1(O)CN(C(=O)Nc2cccc3c2[C@H](c2cc(F)ccc2Cl)NC3=O)c2ccc(F)cc21 (single isomer, unassigned) [Compound I-2453]
15 | ≤ 0.1 µM | Cn1cc(-c2cc(NC(=O)c3cc(F)cc(C(F)(F)F)c3)c3c(c2)C(=O)NC3c2cc(F)ccc2Cl)c(C#N)n1 (centres unmarked) [Compound I-1656]
16 | 10 to 100 µM | O=C1NC(c2cc(F)ccc2Cl)c2c1cc(-c1ccc3ncnn3c1)cc2C1=CCNCC1 (centres unmarked) [Compound I-1997]
17 | 1 to 10 µM | O=C1N[C@H](c2cc(F)ccc2Cl)c2c(NC(=O)N3C[C@@H](O)c4cc(F)ccc43)cc(-n3nccn3)cc21 (single isomer, unassigned) [Compound I-2345]

Row | IC50 | Compound
18 | 10 to 100 µM | O=C1NC(c2cc(F)ccc2Cl)c2c(NC(=O)C3COCCO3)cc(-c3ccc4ncnn4c3)cc21 (centres unmarked) [Compound I-1910]
19 | 10 to 100 µM | O=C(Nc1cc(-c2ccc3ncnn3c2)nc2c1C(C1CCCC1)NC2=O)c1cc(F)cc(C(F)(F)F)c1 (centres unmarked) [Compound I-1654]
20 | ≤ 0.1 µM | Cn1nc(C(F)F)cc1-c1cc(NC(=O)c2cc(F)cc(C(F)(F)F)c2)c2c(c1)C(=O)NC2c1cc(F)ccc1Cl (centres unmarked) [Compound I-1839]
21 | 1 to 10 µM | O=C(Nc1cc(-c2ccn3ncnc3c2)cc2c1[C@@H](c1cc(F)ccc1Cl)NC2=O)c1cc(F)cc(C(F)(F)F)c1 (stereo in doubt) [Compound I-1596]
22 | 10 to 100 µM | O=C1N[C@@H](c2cc(F)ccc2Cl)c2c(N[C@H]3COCc4ccccc43)cc(Br)cc21 (racemic) [Compound I-1893]
23 | 10 to 100 µM | O=C1N[C@H](c2cc(F)ccc2Cl)c2c(NC(=O)[C@H]3CC(C(F)(F)F)C[C@@H](O)C3)cc(Br)cc21 (single isomer, unassigned) [Compound I-2274]
24 | 1 to 10 µM | Cc1cccc2c1CCN2C(=O)Nc1cccc2c1C(c1cc(F)ccc1Cl)NC2=O (centres unmarked) [Compound I-2438]
25 | ≤ 0.1 µM | N#CC1CC(c2cc(NC(=O)c3cc(F)cc(C(F)(F)F)c3)c3c(c2)C(=O)NC3c2cc(F)ccc2Cl)C1 (centres unmarked) [Compound I-1175]
26 | ≤ 0.1 µM | O=C(Nc1cc(C2(O)COC2)cc2c1C(c1cc(F)ccc1Cl)NC2=O)c1cc(F)cc(C(F)(F)F)c1 (centres unmarked) [Compound I-1281]
27 | 1 to 10 µM | O=C(Nc1cccc2c1[C@@H](CC1CCCCC1)NC2=O)c1cc(F)cc(C(F)(F)F)c1 [Compound I-2057]
28 | ≤ 0.1 µM | O=C(Nc1cc(N2CCc3ncccc32)cc2c1C(c1cc(F)ccc1Cl)NC2=O)c1cc(F)cc(C(F)(F)F)c1 (centres unmarked) [Compound I-1260]
29 | 10 to 100 µM | CC(C)(C)N[C@H]1NC(=O)c2cccc(NC(=O)c3cc(F)cc(C(F)(F)F)c3)c21 (single isomer, unassigned) [Compound I-2248]
30 | ≤ 0.1 µM | Cc1ccc(C(=O)Nc2cc(-c3ccc4ncnn4c3)cc3c2[C@H](c2cc(F)ccc2Cl)NC3=O)cc1C(F)(F)F (stereo in doubt) [Compound I-1167]
31 | 0.1 to 0.5 µM | O=C(Nc1cc(-c2ccc3nnc(Cl)n3c2)cc2c1[C@@H](c1cc(F)ccc1Cl)NC2=O)c1cc(F)cc(C(F)(F)F)c1 [Compound I-1676]
32 | 10 to 100 µM | O=C(Nc1cccc2c1[C@H](C1CC1)NC2=O)c1cc(F)cc(C(F)(F)F)c1 (single isomer, unassigned) [Compound I-2221]
33 | 0.5 to 1 µM | O=C(Nc1cc(C2=CN3CCN=C3C=C2)cc2c1[C@@H](c1cc(F)ccc1Cl)NC2=O)c1cc(F)cc(C(F)(F)F)c1 [Compound I-2091]
34 | ≤ 0.1 µM | CC(=O)N1CCC[C@@H](Oc2cc(NC(=O)c3cc(F)cc(C(F)(F)F)c3)c3c(c2)C(=O)NC3c2cc(F)ccc2Cl)C1 (single isomer, unassigned) [Compound I-1431]

The remaining lines, values behind:

Row | Compound | IC50
35 | O=C(Nc1cc(Br)cc2c1[C@@H](c1cc(Cl)cc(F)c1F)NC2=O)c1cc(F)cc(C(F)(F)F)c1 [Compound I-787] | 1 to 10 µM
36 | O=C1N[C@@H](c2ccccc2Cl)c2c(NC(=O)c3csc4ccccc34)ccnc21 [Compound I-32] | 1 to 10 µM
37 | O=C(Nc1cccc2c1C([C@H]1CCCC[C@@H]1O)NC2=O)c1cc(F)cc(C(F)(F)F)c1 (single isomer, unassigned) [Compound I-1972] | 10 to 100 µM
38 | Cn1cc(-c2cc(NC(=O)c3cc(F)cc(C(F)(F)F)c3)c3c(n2)C(=O)N[C@@H]3c2cc(F)ccc2Cl)ccc1=O [Compound I-587] | 1 to 10 µM
39 | O=C(Nc1cc(Br)cc2c1[C@H](c1cc(F)cc(F)c1Cl)NC2=O)c1cc(F)cc(C(F)(F)F)c1 [Compound I-805] | ≤ 0.1 µM
40 | Cc1ccccc1C1NC(=O)c2nccc(NC(=O)N3CCc4ccccc43)c21 (centres unmarked) [Compound I-147, N-(7-oxo-5-(o-tolyl)-6,7-dihydro-5H-pyrrolo[3,4-b]pyridin-4-yl)indoline-1-carboxamide] | 0.1 to 0.5 µM
41 | O=C1NC(c2cc(F)ccc2Cl)c2c(NC(=O)c3cc(Cl)cc4cccnc34)cc(Br)cc21 (centres unmarked) [Compound I-802] | 10 to 100 µM
42 | CNC(=O)c1cc(NC(=O)c2cc(F)cc(C(F)(F)F)c2)c2c(c1)c(=O)[nH]n2-c1cc(F)ccc1Cl [Compound I-808] | 1 to 10 µM
43 | O=C(Nc1cccc2c1C(c1ccc3cn[nH]c3c1)NC2=O)c1cc(F)cc(C(F)(F)F)c1 (centres unmarked) [Compound I-844] | 10 to 100 µM
44 | CN(C)C(=O)Cc1cc(NC(=O)c2cc(F)cc(C(F)(F)F)c2)c2c(c1)C(=O)NC2c1cc(F)ccc1Cl (centres unmarked) [Compound I-476] | ≤ 0.1 µM
45 | NC(=O)Cc1cc(NC(=O)c2cc(F)cc(C(F)(F)F)c2)c2c(c1)C(=O)NC2c1cc(F)ccc1Cl (centres unmarked) [Compound I-578] | ≤ 0.1 µM
46 | CCOc1cc(C(=O)Nc2cc(Br)cc3c2C(c2cc(F)ccc2Cl)NC3=O)ccc1F (centres unmarked) [Compound I-556] | 1 to 10 µM
47 | Nc1cc(C2NC(=O)c3cccc(NC(=O)c4cc(F)cc(C(F)(F)F)c4)c32)ccn1 (centres unmarked) [Compound I-828] | 10 to 100 µM
48 | CC(C)(O)Cc1cc(NC(=O)c2cc(F)cc(Cl)c2)c2c(c1)C(=O)N[C@H]2c1cc(F)ccc1Cl [Compound I-963] | 0.5 to 1 µM
49 | O=C(Nc1cc(-n2cc(F)cn2)nc2c1C(c1cc(F)ccc1Cl)NC2=O)c1cc(F)cc(C(F)(F)F)c1 (centres unmarked) [Compound I-354] | 0.1 to 0.5 µM
50 | O=C(Nc1cc(Br)cc2c1C(c1cc(F)ccc1Cl)NC2=O)c1cc(F)cc(OC(F)(F)F)c1 (centres unmarked) [Compound I-831] | 0.1 to 0.5 µM
51 | N#CC1(CNc2cc(NC(=O)c3cc(F)cc(C(F)(F)F)c3)c3c(c2)C(=O)NC3c2cc(F)ccc2Cl)CC1 (centres unmarked) [Compound I-695] | ≤ 0.1 µM
52 | O=C(Nc1cnc(-c2cn[nH]c2)c2c1C(c1cc(F)ccc1Cl)NC2=O)c1cc(F)cc(C(F)(F)F)c1 (centres unmarked) [Compound I-287] | 0.1 to 0.5 µM
53 | O=C(Nc1cc(-c2ncc[nH]2)cc2c1C(c1cc(F)ccc1Cl)NC2=O)c1cc(F)cc(C(F)(F)F)c1 (centres unmarked) [Compound I-712] | ≤ 0.1 µM
54 | Cn1cc(-c2cc(NC(=O)c3cc(F)cc(C(F)(F)F)c3)c3c(n2)C(=O)NC3c2cc(F)ccc2Cl)cn1 (centres unmarked) [Compound I-162] | ≤ 0.1 µM
55 | O=C(Nc1cccc2c1C(c1cc(F)ccc1Cl)NC2=O)c1cc(Cl)cc2c1OCC2 (centres unmarked) [Compound I-596] | 1 to 10 µM
56 | O=C(Nc1cc(Br)cc2c1C(c1cc(F)ccc1Cl)NC2=O)c1ccc(F)c(OC(F)(F)F)c1 (centres unmarked) [Compound I-516] | 0.1 to 0.5 µM
57 | O=C(Nc1cccc2c1C(c1ccc(-c3ccccc3)cc1Cl)NC2=O)c1cc(F)cc(C(F)(F)F)c1 (centres unmarked) [Compound I-421] | 1 to 10 µM
58 | O=C(Nc1cc(Br)cc2c1[C@H](c1c(F)cccc1Cl)NC2=O)c1cc(F)cc(C(F)(F)F)c1 [Compound I-680] | ≤ 0.1 µM
59 | CS(=O)(=O)Cc1cc(NC(=O)c2cc(F)cc(Cl)c2)c2c(c1)C(=O)NC2c1cc(F)ccc1Cl (centres unmarked) [Compound I-231] | ≤ 0.1 µM
60 | Cc1ccccc1C1NC(=O)c2cccc(NC(=O)c3cc(F)cc(C(C)C)c3)c21 (centres unmarked) [Compound I-715] | 1 to 10 µM
61 | O=C(Nc1cc(NCCO)cc2c1C(c1cc(F)ccc1Cl)NC2=O)c1cc(F)cc(C(F)(F)F)c1 (centres unmarked) [Compound I-707] | ≤ 0.1 µM
62 | Cc1ccccc1C1NC(=O)c2nccc(NC(=O)N3CCc4c(F)cc(F)cc43)c21 (centres unmarked) [Compound I-148] | 0.5 to 1 µM
